Data: PubChem BioAssay AID624326 (Sanford-Burnham Center for Chemical Genomics, 2012)
Activity calls are given as the source filed them.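 The calls were made as follows: active = half-inhibitory concentration against fatty acid synthase thioesterase at or below 20 µM; inactive = the rest.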

Molecular target: Fatty acid synthase (Homo sapiens) (UniProt P49327)
Assay: inhibition of human FAS-TE enzyme activity – biochemical, kinetic fluorescence intensity, dose response (AID 624326)
Conditions: recombinant FAS-TE, OMFH fluorogenic substrate

Chain of Fatty acid synthase (Homo sapiens) (P49327 whole entry, looked up): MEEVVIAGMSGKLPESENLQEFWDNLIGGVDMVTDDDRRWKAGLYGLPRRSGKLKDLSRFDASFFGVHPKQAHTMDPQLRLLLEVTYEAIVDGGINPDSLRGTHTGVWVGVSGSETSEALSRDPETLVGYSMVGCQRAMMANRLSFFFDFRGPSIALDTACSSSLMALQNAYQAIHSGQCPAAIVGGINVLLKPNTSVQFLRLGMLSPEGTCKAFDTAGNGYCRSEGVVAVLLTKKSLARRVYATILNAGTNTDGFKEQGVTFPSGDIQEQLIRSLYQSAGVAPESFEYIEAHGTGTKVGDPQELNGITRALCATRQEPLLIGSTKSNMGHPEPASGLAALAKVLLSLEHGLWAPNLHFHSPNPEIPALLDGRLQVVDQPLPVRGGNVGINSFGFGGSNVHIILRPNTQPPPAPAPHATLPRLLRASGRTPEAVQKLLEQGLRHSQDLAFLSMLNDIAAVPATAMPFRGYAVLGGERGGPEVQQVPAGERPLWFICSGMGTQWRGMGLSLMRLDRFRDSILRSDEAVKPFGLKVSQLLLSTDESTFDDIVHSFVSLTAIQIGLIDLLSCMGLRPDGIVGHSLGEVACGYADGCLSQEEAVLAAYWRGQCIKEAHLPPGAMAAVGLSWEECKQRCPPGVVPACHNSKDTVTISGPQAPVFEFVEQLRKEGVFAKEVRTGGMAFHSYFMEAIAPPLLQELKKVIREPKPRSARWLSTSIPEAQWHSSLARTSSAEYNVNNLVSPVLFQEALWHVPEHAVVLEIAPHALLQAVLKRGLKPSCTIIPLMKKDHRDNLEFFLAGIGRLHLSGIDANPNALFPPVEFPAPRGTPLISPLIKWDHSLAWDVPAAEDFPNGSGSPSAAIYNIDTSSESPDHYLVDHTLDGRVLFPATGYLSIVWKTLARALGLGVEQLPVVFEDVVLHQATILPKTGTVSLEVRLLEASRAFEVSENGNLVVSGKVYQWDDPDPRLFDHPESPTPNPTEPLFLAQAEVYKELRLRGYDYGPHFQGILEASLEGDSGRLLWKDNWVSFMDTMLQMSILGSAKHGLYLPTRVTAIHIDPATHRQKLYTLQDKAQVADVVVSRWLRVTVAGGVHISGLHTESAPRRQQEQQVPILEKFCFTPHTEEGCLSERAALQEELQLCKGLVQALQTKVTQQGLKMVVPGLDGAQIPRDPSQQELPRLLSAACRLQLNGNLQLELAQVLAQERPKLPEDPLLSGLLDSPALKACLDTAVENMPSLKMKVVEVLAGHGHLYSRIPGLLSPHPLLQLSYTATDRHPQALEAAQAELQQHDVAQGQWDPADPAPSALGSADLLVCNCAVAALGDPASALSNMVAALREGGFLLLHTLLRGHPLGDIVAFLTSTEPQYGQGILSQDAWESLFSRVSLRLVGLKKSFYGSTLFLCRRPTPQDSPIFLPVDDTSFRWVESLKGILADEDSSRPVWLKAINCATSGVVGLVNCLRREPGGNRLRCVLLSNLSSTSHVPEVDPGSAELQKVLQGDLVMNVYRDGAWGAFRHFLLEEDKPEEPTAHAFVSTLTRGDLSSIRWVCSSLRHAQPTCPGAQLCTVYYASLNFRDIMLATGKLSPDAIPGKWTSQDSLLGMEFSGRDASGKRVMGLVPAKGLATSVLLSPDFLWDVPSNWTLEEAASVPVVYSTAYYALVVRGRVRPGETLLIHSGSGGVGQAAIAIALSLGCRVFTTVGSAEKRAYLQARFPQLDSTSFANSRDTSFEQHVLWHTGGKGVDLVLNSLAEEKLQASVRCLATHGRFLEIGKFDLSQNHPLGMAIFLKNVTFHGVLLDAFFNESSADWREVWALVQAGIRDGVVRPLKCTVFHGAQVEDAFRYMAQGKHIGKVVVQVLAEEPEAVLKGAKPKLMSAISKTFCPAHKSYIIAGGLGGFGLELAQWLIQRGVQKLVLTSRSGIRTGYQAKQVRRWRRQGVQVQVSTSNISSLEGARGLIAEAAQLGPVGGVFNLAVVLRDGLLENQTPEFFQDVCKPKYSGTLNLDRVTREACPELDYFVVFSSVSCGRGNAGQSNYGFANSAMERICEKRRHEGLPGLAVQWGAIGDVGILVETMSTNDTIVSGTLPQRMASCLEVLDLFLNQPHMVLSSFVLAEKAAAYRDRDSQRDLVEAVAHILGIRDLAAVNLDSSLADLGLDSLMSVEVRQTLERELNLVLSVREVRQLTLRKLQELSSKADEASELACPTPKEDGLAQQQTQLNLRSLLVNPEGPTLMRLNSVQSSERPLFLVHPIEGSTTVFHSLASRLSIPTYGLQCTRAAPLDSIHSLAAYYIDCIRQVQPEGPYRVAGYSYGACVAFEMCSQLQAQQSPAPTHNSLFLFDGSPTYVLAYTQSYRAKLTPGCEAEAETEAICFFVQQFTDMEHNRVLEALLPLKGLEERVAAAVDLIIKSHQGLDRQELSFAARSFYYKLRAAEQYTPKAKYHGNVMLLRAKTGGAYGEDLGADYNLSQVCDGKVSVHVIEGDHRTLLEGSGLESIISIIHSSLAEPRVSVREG

Row | SMILES | IC50
1 | CCC(C)(C)C1CCC(=NNS(=O)(=O)c2ccc(C)c([N+](=O)[O-])c2)CC1 (configuration not stated) | inactive
2 | CCCCC(=O)Nc1nc(-c2ccc(S(=O)(=O)N3CCOCC3)cc2)cs1 | 206 nM
